Experimental data taken from the NIST ThermoML archive (doi:10.1016/j.jct.2019.105880).

Experiment: wn = mass fraction of the nth substance listed
Settings: 100 kPa, Liquid; for viscosity: Falling or rolling sphere viscometry; for speed of sound: Frequency=3 MHz, Single path-length method; for mass density: Vibrating tube method

CCCO [propan-1-ol] + O
Settings	mass density [kg/m3]	speed of sound [m/s]	viscosity [mPa·s]
288.15 K, w1 = 0.1	985.245	1564.4	1.82
288.15 K, w1 = 0.2	971.452	1587.4	2.723
288.15 K, w1 = 0.3	954.251	1533.5	3.208
288.15 K, w1 = 0.4	934.617	1485.7	3.575
293.15 K, w1 = 0.1	983.869	1570.1	1.545
293.15 K, w1 = 0.2	969.02	1581.6	2.232
293.15 K, w1 = 0.3	950.883	1526.5	2.618
293.15 K, w1 = 0.4	931.255	1477.2	2.92
298.15 K, w1 = 0.1	982.336	1574.3	1.333
298.15 K, w1 = 0.2	966.338	1575.5	1.852
298.15 K, w1 = 0.3	948.039	1519.6	2.174
298.15 K, w1 = 0.4	927.818	1468	2.436
303.15 K, w1 = 0.1	980.428	1577.4	1.156
303.15 K, w1 = 0.2	963.667	1569.5	1.567
303.15 K, w1 = 0.3	945.132	1512.6	1.841
303.15 K, w1 = 0.4	924.386	1458.6	2.056

CC(C)O [propan-2-ol] + O
Settings	mass density, w1 = 0.1 [kg/m3]	mass density, w1 = 0.2 [kg/m3]	mass density, w1 = 0.3 [kg/m3]	speed of sound, w1 = 0.1 [m/s]	speed of sound, w1 = 0.2 [m/s]	speed of sound, w1 = 0.3 [m/s]	viscosity, w1 = 0.1 [mPa·s]	viscosity, w1 = 0.2 [mPa·s]	viscosity, w1 = 0.3 [mPa·s]
288.15 K	983.401	971.675	954.62	1573.7	1638.6	1586.9	1.936	3.087	4.014
293.15 K	982.158	969.345	951.686	1578.9	1629.4	1574.7	1.633	2.485	3.172
298.15 K	980.642	966.771	948.106	1582.9	1620.2	1562.8	1.395	2.045	2.555
303.15 K	978.882	964.199	945.121	1585.7	1611	1549.6	1.208	1.71	2.105
